“Also recorded” adds a separate entry of the source.

Common to all, as to type: in vivo
A short description of data set [1]: Acute toxicity and resorptive action in white mice, intragastric administration. The settings on record: mouse, in vivo, po, intragastric administration, N = 10, Litchfield–Wilcoxon. The procedure: (§1) The acute toxicity and resorptive action were determined in white mice weighing 20–24 g by gradual oral administration at doses of 1–5000 mg/kg.
(§2) The animals were kept under standard nursery conditions with a natural 12-h light-dark cycle, at an air temperature of 20 ± 2 °C. The animals had unlimited access to food and water. The experiments were performed in accordance with the International Convention for the Protection of Vertebrate Animals used for Experimental and Scientific Purposes (Strasbourg, 1986). Each substance was tested on 10 mice and LD50 was determined graphically by the well-known Litchfield–Wilcoxon method.

Data set [2] concerns rabbit eye cornea. The experiment in a line: Local anesthetic activity, rabbit eye cornea terminal anesthesia test. The settings on record: for Onset of Anesthesia / Total Duration of Anesthesia / Duration of Complete Anesthesia / Duration of complete anesthesia, times longer than lidocaine: rabbit corneal model; for Onset of Anesthesia / Total Duration of Anesthesia / Duration of Complete Anesthesia: 1% aqueous solution; for Duration of Complete Anesthesia: percentage of the anesthetic activity of lidocaine (=100%); for Duration of complete anesthesia, times longer than lidocaine: 1% concentration; for Local irritant effects on rabbit eyes: concentrations studied. The procedure:
Local anesthetic activity was evaluated using the rabbit eye cornea terminal anesthesia test on 2.0–2.5 kg male chinchilla rabbits after introduction of total 0.4 mL (0.2 mL twice with an interval of 30 s) of 1.0 % solutions of the studied substances. Lidocaine was used as an etalon drug. Each substance was tested on three rabbits.

In data set [3] the test system is white mice. Description: Acute toxicity and resorptive action in white mice, intragastric administration. Particulars: for Decrease of acute toxicity compared with 3a: intragastric, relative to parent compound 3a. The procedure: as §1, §2

In turn, `COc1cc2c(cc1OC)C(c1ccccc1)NCC2` (centres unmarked) [Compound 3a, 1-(Phenyl)-6,7-dimethoxy-1,2,3,4-tetrahydroisoquinoline] came in with an LD50 in data set [1] of 280 mg/kg. Besides, in data set [2], the “Onset of Anesthesia” value is given as 3.0 ± 1.1 min, the “Total Duration of Anesthesia” value worked out at 53.0 ± 4.6 min and the “Duration of Complete Anesthesia” value is listed as “+50%”.
For the molecule `COc1cc2c(cc1OC)C(c1ccccc1O)NCC2` (centres unmarked) [Compound 3b, 1-(2′-Hydroxyphenyl)-6,7-dimethoxy-1,2,3,4-tetrahydroisoquinoline], the LD50 in data set [1] was found to be 375 mg/kg. The “Decrease of acute toxicity compared with 3a” value (“Decrease of acute toxicity” below) in data set [3] was “did not result in a significant decrease of toxicity”. In data set [2], the “Onset of Anesthesia” value is listed as 1.0 ± 0.4 min, the “Total Duration of Anesthesia” value is given as 44.0 ± 1.5 min and the “Duration of Complete Anesthesia” value was “+50%”.
For `COc1ccc(C2NCCc3cc(OC)c(OC)cc32)cc1O` (centres unmarked) [Compound 3c, 1-(3′-Hydroxy-4′-methoxyphenyl)-6,7-dimethoxy-1,2,3,4-tetrahydroisoquinoline], in that order: 980 mg/kg, 3.5 fold, 3.0 ± 0.8 min, 70.0 ± 4.5 min and “+40%”.
Molecule `COc1ccc(C2NCCc3cc(OC)c(OC)cc32)cc1OC` (centres unmarked) [Compound 3d, 1-(3′,4′-Dimethoxyphenyl)-6,7-dimethoxy-1,2,3,4-tetrahydroisoquinoline] gave an LD50 in data set [1] of 670 mg/kg. The “Decrease of acute toxicity” value in data set [3] was 2.5–2.6 fold. In addition, in data set [2], the “Onset of Anesthesia” value is recorded as 2.0 ± 0.7 min, the “Total Duration of Anesthesia” value is 70.0 ± 2.1 min and the “Duration of Complete Anesthesia” value is “+60%”.
The like results for `COc1cc2c(cc1OC)C(c1ccc(O)c(Br)c1)NCC2` (centres unmarked) [Compound 3e, 1-(3′-Bromo-4′-hydroxyphenyl)-6,7-dimethoxy-1,2,3,4-tetrahydroisoquinoline] were, in that order, 3850 mg/kg, 13.75 fold, 5.0 ± 0.9 min, 80.0 ± 3.2 min and “+49%”.
In the case of `COc1cc2c(cc1OC)C(c1cc(Br)ccc1O)NCC2` (centres unmarked) [Compound 3f, 1-(5′-Bromo-2′-hydroxyphenyl)-6,7-dimethoxy-1,2,3,4-tetrahydroisoquinoline], the LD50 in data set [1] is 305 mg/kg. For the same molecule, the “Decrease of acute toxicity” value in data set [3] is given as “did not result in a significant decrease of toxicity”. Moreover, in data set [2], the “Onset of Anesthesia” value was found to be 1.0 ± 0.5 min; the “Total Duration of Anesthesia” value was 64.0 ± 3.8 min; the “Duration of complete anesthesia, times longer than lidocaine” value (from here on “Duration … times longer than lidocaine”) was 1.6 times.
Molecule `COc1cc(Br)c(C2NCCc3cc(OC)c(OC)cc32)cc1OC` (centres unmarked) [Compound 3g, 1-(2′-Bromo-4′,5′-dimethoxyphenyl)-6,7-dimethoxy-1,2,3,4-tetrahydroisoquinoline] came in with an LD50 in data set [1] of 290 mg/kg. Also, in data set [3], the “Decrease of acute toxicity” value is reported as “no significant change in acute toxicity”. In data set [2], the “Onset of Anesthesia” value is recorded as 2.0 ± 1.0 min, the “Total Duration of Anesthesia” value turned out to be 44.0 ± 3.5 min and the “Duration of Complete Anesthesia” value is reported as “+90%”.
With `COc1cc(Br)c(C2NCCc3cc(OC)c(OC)cc32)cc1O` (centres unmarked) [Compound 3h, 1-(2′-Bromo-5′-hydroxy-4′-methoxyphenyl)-6,7-dimethoxy-1,2,3,4-tetrahydroisoquinoline], the LD50 in data set [1] came out at 550 mg/kg. Moreover, the “Decrease of acute toxicity” value in data set [3] is given as “about 2 fold”. In data set [2], the “Onset of Anesthesia” value turned out to be 1.0 ± 0.4 min; the “Total Duration of Anesthesia” value was found to be 40.0 ± 3.2 min; the “Duration of Complete Anesthesia” value is reported as “+170%”; the “Duration … times longer than lidocaine” value amounted to 1.7 times.
Take `COc1cc2c(cc1OC)C(c1ccc3c(c1)OCO3)NCC2` (centres unmarked) [Compound 3i, 1-(3′,4′-Methylenedioxyphenyl)-6,7-dimethoxy-1,2,3,4-tetrahydroisoquinoline]: the LD50 in data set [1] was 280 mg/kg. In addition, the “Decrease of acute toxicity” value in data set [3] is “did not lead to a change in acute toxicity”. Moreover, in data set [2], the “Onset of Anesthesia” value was 2.0 ± 0.4 min, the “Total Duration of Anesthesia” value was 57.0 ± 3.7 min and the “Duration of Complete Anesthesia” value was “+80%”.
`COc1cc2c(cc1OC)C(c1cc3c(cc1Br)OCO3)NCC2` (centres unmarked) [Compound 3j, 1-(2′-Bromo-4′,5′-methylenedioxyphenyl)-6,7-dimethoxy-1,2,3,4-tetrahydroisoquinoline] displayed an LD50 in data set [1] of 730 mg/kg. Besides, in data set [3], the “Decrease of acute toxicity” value was determined as 2.5 fold. In data set [2], the “Onset of Anesthesia” value was determined as 2.0 ± 1.0 min, the “Total Duration of Anesthesia” value stood at 52.0 ± 4.0 min and the “Duration of Complete Anesthesia” value is on record as “+90%”.
For `COc1cc2c(cc1OC)C(c1cc3c(cc1Cl)OCO3)NCC2` (centres unmarked) [Compound 3k, 1-(4′,5′-Methylenedioxy-2′-chlorophenyl)-6,7-dimethoxy-1,2,3,4-tetrahydroisoquinoline], in that order: 520 mg/kg, 1.86 fold, 2.0 ± 1.2 min, 43.0 ± 4.5 min and “+90%”.
For the molecule `COc1cc2c(cc1OC)C(c1cc(Br)c(O)c(OC)c1)NCC2` (centres unmarked) [Compound 3l, 1-(5′-Bromo-4′-hydroxy-3′-methoxyphenyl)-6,7-dimethoxy-1,2,3,4-tetrahydroisoquinoline], the LD50 in data set [1] worked out at 1560 mg/kg. In data set [3], the “Decrease of acute toxicity” value is listed as 5.6 fold. Also, in data set [2], the “Onset of Anesthesia” value was 5.0 ± 1.2 min; the “Total Duration of Anesthesia” value stood at 89.0 ± 3.0 min; the “Duration of Complete Anesthesia” value was “+140%”; the “Duration … times longer than lidocaine” value came out at 1.4 times.
`COc1cc2c(cc1OC)C(c1ccc([N+](=O)[O-])cc1)NCC2` (centres unmarked) [Compound 3m, 1-(4′-Nitrophenyl)-6,7-dimethoxy-1,2,3,4-tetrahydroisoquinoline] yielded an LD50 in data set [1] of 1950 mg/kg. Besides, in data set [2], the “Onset of Anesthesia” value stood at 3.0 ± 0.4 min, the “Total Duration of Anesthesia” value came out at 48.0 ± 2.8 min and the “Duration of Complete Anesthesia” value was “+80%”.
In data set [1], `COc1cc2c(cc1OC)C(c1cccc([N+](=O)[O-])c1)NCC2` (centres unmarked) [Compound 3n, 1-(3′-Nitrophenyl)-6,7-dimethoxy-1,2,3,4-tetrahydroisoquinoline] showed an LD50 of 460 ± 598 mg/kg. Also, the LD50 in data set [3] (intragastric administration, N = 10, Litchfield–Wilcoxon) was 525 (460.5 ± 598.5) mg/kg. Also, in data set [2], the “Onset of Anesthesia” value is listed as 3.0 ± 1.0 min; the “Total Duration of Anesthesia” value is 37.0 ± 3.2 min; the “Duration of Complete Anesthesia” value is on record as “+260%”; the “Duration … times longer than lidocaine” value was found to be 2.6 times. Also, the “Local irritant effects on rabbit eyes” value in data set [2] was “eye irritation and redness; also recorded: reversible irritation and redness of the eyes”.
Molecule `COc1cc2c(cc1OC)C(c1cccc(Br)c1)NCC2` (centres unmarked) [Compound 3o, 1-(3′-Bromophenyl)-6,7-dimethoxy-1,2,3,4-tetrahydroisoquinoline] had an LD50 in data set [1] of 710 mg/kg. Also, the “Decrease of acute toxicity” value in data set [3] is 2.5–2.6 fold. Moreover, in data set [2], the “Onset of Anesthesia” value is reported as 2.0 ± 0.4 min, the “Total Duration of Anesthesia” value is recorded as 115.0 ± 3.8 min and the “Duration of Complete Anesthesia” value is “+130%”.
In the case of `COc1cc2c(cc1OC)C(c1ccccc1OC)NCC2` (centres unmarked) [Compound 3p, 1-(2′-Methoxyphenyl)-6,7-dimethoxy-1,2,3,4-tetrahydroisoquinoline], the LD50 in data set [1] came to 300 mg/kg. In data set [3], the “Decrease of acute toxicity” value is on record as “did not result in a significant decrease of toxicity”. For the same molecule, in data set [2], the “Onset of Anesthesia” value is listed as 3.0 ± 0.8 min; the “Total Duration of Anesthesia” value amounted to 67.0 ± 3.6 min; the “Duration of Complete Anesthesia” value is listed as “+300%”; the “Duration … times longer than lidocaine” value turned out to be 3.0 times.
Take `COc1cc2c(cc1OC)C(c1ccc(N(C)C)cc1)NCC2` (centres unmarked) [Compound 3q, 1-(4′-Dimethylaminophenyl)-6,7-dimethoxy-1,2,3,4-tetrahydroisoquinoline]: the LD50 in data set [1] came to 1250 mg/kg. Moreover, the “Decrease of acute toxicity” value in data set [3] was about 4.5 fold. Besides, in data set [2], the “Onset of Anesthesia” value came out at 2.0 ± 0.6 min; the “Total Duration of Anesthesia” value came out at 45.0 ± 4.1 min; the “Duration of Complete Anesthesia” value is “+220%”; the “Duration … times longer than lidocaine” value came to 2.2 times.
Molecule `COc1cc2c(cc1OC)C(c1ccc(Cl)cc1)NCC2` (centres unmarked) [Compound 3r, 1-(4′-Chlorophenyl)-6,7-dimethoxy-1,2,3,4-tetrahydroisoquinoline] registered an LD50 in data set [1] of 740 mg/kg. Moreover, the “Decrease of acute toxicity” value in data set [3] is 2.5–2.6 fold. Besides, in data set [2], the “Onset of Anesthesia” value was 2.0 ± 0.6 min; the “Total Duration of Anesthesia” value was 35.0 ± 3.4 min; the “Duration of Complete Anesthesia” value was “+150%”; the “Local irritant effects on rabbit eyes” value is “eye irritation and redness; also recorded: reversible irritation and redness of the eyes”.
In turn, `COc1cc2c(cc1OC)C(c1cccc(N)c1)NCC2` (centres unmarked) [Compound 4b, 1-(3′-Aminophenyl)-6,7-dimethoxy-1,2,3,4-tetrahydroisoquinoline] registered an LD50 in data set [1] of 750 mg/kg. For the same molecule, in data set [2], the “Onset of Anesthesia” value is 3.0 ± 0.7 min, the “Total Duration of Anesthesia” value was 44.0 ± 4.1 min and the “Duration of Complete Anesthesia” value is recorded as “+0%”.
As to `CCN(CC)CC(=O)Nc1c(C)cccc1C` [Lidocaine, reference compound], in data set [2], the “Onset of Anesthesia” value worked out at 5.0 ± 0.5 min and the “Total Duration of Anesthesia” value is reported as 52.7 ± 4.9 min.
